Where two headings read alike, the source gives them in different places. *1 amine or outer side, *2 acyl side, *3 side chain or, on linkers, in order; H or OH if unused. Where a SMILES comes first, the peptide text is derived from it. Bridges are numbered along the chain shown (N, C = ends). [ ]: non-standard residue; d: D form. The star is where a group is joined. X1 = O=C1C[C@@H](C(=O)[*:2])N([*:1])C[C@H]1CS[C@@H]1CN2CCC1CC2; NMePhe(4-NMe2) = CN[C@@H](Cc1ccc(N(C)C)cc1)C(=O)O; Picolinoyl(3-OH) = O=C(c1ncccc1O)*; Phe(ol) = N[C@H](CO)Cc1ccccc1; Phg = N[C@H](C(=O)O)c1ccccc1; dAbu = CC[C@@H](N)C(=O)O; Aib = CC(C)(N)C(=O)O
Tests used:
[1] = test system: P. falciparum 3D7 parasites; test: P. falciparum growth inhibition assay, 1-cycle (72 h treatment), SYBR DNA staining (library screen at 2 μg/mL and dose-response); assay type: cell-based, Plasmodium falciparum
[2] = test system: P. falciparum 3D7 parasites; test: P. falciparum growth inhibition assay, 2-cycle (120 h treatment), delayed-death screen and dose-response; assay type: cell-based, Plasmodium falciparum
[3] = test system: T. gondii RH strain (RH-Tub-eYFP) tachyzoites; test: microbe, parasite or virus in culture; assay type: cell-based, Toxoplasma gondii
[4] = Plasmodium falciparum, 3D7, library screen at 2 μg/mL, 72 h, % growth, replicate 1, read-out: Pf_72h_%Growth_Rep1
[5] = Plasmodium falciparum, 3D7, library screen at 2 μg/mL, 72 h, % growth, replicate 2, read-out: Pf_72h_%Growth_Rep2
[6] = Plasmodium falciparum, 3D7, library screen at 2 μg/mL, 120 h, % growth, replicate 1, read-out: Pf_120h_%Growth_Rep1
[7] = Plasmodium falciparum, 3D7, library screen at 2 μg/mL, 120 h, % growth, replicate 2, read-out: Pf_120h_%Growth_Rep2
[8] = P. falciparum, 72 h, parasite screen 2 μg/mL, % growth, replicate 1
[9] = P. falciparum, 72 h, parasite screen 2 μg/mL, % growth, replicate 2
[10] = P. falciparum, 120 h, parasite screen 2 μg/mL, % growth, replicate 1
[11] = P. falciparum, 120 h, parasite screen 2 μg/mL, % growth, replicate 2
[12] = T. gondii, 72 h, parasite screen 2 μg/mL, % growth, replicate 1
[13] = T. gondii, 72 h, parasite screen 2 μg/mL, % growth, replicate 2
[14] = library screen at 2 μg/mL, 72 h, % growth, replicate 1
[15] = library screen at 2 μg/mL, 72 h, % growth, replicate 2
[16] = library screen at 2 μg/mL, 120 h, % growth, replicate 1
[17] = library screen at 2 μg/mL, 120 h, % growth, replicate 2

Q: CC(=O)OCC1=C[C@@H]2OC(=O)C3=CO[C@@H](O[C@@H]4O[C@H](CO)[C@@H](O)[C@H](O)[C@H]4O)[C@H]1[C@@H]32 [Asperuloside] was tested. Which activity at 2 µg/mL [1, 4] did it give?
A: Its activity at 2 µg/mL is 86.2%.

Q: What about the activity at 2 µg/mL [1, 5] of the same compound?
A: Its activity at 2 µg/mL is 89.3%.

Q: What about the activity at 2 µg/mL [2, 6] of the same compound?
A: The activity at 2 µg/mL was 94.8%.

Q: And the activity at 2 µg/mL [2, 7]?
A: Its activity at 2 µg/mL is 94.6%.

Q: What about the percent parasite growth at 2 µg/mL ([3]; Toxoplasma gondii, 72 h, library screen at 2 μg/mL, 72 h, % growth, replicate 1; read-out: Tg_72h_%Growth_Rep1) of the same compound?
A: The percent parasite growth at 2 µg/mL was 123%.

Q: And the percent parasite growth at 2 µg/mL ([3]; Toxoplasma gondii, 72 h, library screen at 2 μg/mL, 72 h, % growth, replicate 2; read-out: Tg_72h_%Growth_Rep2)?
A: Its percent parasite growth at 2 µg/mL is 97.1%.

Q: Which Pf_72h_%Growth_Rep1 [1, 8] does the source give for CC(=O)C1C(C)=CC(=O)c2c1c(-c1c3c(c(O)c4c(O)cccc14)C(=O)CC(C)(O)C3C(C)=O)c1cccc(O)c1c2O (stereo not drawn) [Setomimycin] here?
A: Its Pf_72h_%Growth_Rep1 is 8.25%.

Q: And the Pf_72h_%Growth_Rep2 [1, 9]?
A: The Pf_72h_%Growth_Rep2 was 3.46%.

Q: What about the Pf_120h_%Growth_Rep1 [2, 10] of the same compound?
A: The Pf_120h_%Growth_Rep1 was 7.52%.

Q: And the Pf_120h_%Growth_Rep2 [2, 11]?
A: The Pf_120h_%Growth_Rep2 was 6.30%.

Q: What about the Tg_72h_%Growth_Rep1 [3, 12] of the same compound?
A: The Tg_72h_%Growth_Rep1 was 70.47%.

Q: What about the Tg_72h_%Growth_Rep2 [3, 13] of the same compound?
A: The Tg_72h_%Growth_Rep2 was 40.70%.

Q: What does the source list for CO/C1=C\C(C)=C\[C@@H](C)[C@@H](O)[C@@H](C)C/C(C)=C/C=C/[C@H](OC)[C@@H]([C@@H](C)[C@@H](O)[C@H](C)[C@@]2(O)C[C@@H](OC(=O)/C=C/C(=O)NC3=C(O)CCC3=O)[C@H](C)[C@@H](C(C)C)O2)OC1=O [Bafilomycin B1]?
A: Pf_72h_%Growth_Rep1 [1, 14]: 2.46%; Pf_72h_%Growth_Rep2 [1, 15]: 1.87%; Pf_120h_%Growth_Rep1 [2, 16]: 5.87%; Pf_120h_%Growth_Rep2 [2, 17]: 11.47%; Tg_72h_%Growth_Rep1 [3, 14]: -0.95%; Tg_72h_%Growth_Rep2 [3, 15]: 0.68%

Q: What does the source list for CC(=O)NC(C)(C)C(=O)N1CCC[C@H]1C(=O)NC(C)(C)C(=O)N[C@@H](C)C(=O)NC(C)(C)C(=O)N[C@@H](C)C(=O)N[C@@H](CCC(N)=O)C(=O)NC(C)(C)C(=O)N[C@H](C(=O)NC(C)(C)C(=O)NCC(=O)N[C@@H](CC(C)C)C(=O)NC(C)(C)C(=O)N1CCC[C@H]1C(=O)N[C@H](C(=O)NC(C)(C)C(=O)NC(C)(C)C(=O)N[C@@H](CCC(N)=O)C(=O)N[C@@H](CCC(N)=O)C(=O)N[C@H](CO)Cc1ccccc1)C(C)C)C(C)C [Alamethicin F50] (Ac-[Aib]P[Aib]A[Aib]AQ[Aib]V[Aib]GL[Aib]PV[Aib][Aib]QQ[Phe(ol)])?
A: activity at 2 µg/mL ([1]; Plasmodium falciparum, 3D7; P. falciparum, 2 μg/mL, 72 h; read-out: 1) Growth (%) at 72 h): 22%; activity at 2 µg/mL [1, 4]: 21.9%; activity at 2 µg/mL [1, 5]: 22.1%; 3) Fold change (72 h/120 h) ([2]; P. falciparum, growth at 72 h / growth at 120 h, 2 μg/mL): 6.4; activity at 2 µg/mL ([2]; Plasmodium falciparum, 3D7; P. falciparum, 2 μg/mL, 120 h; read-out: 2) Growth (%) at 120 h): 3.45%; activity at 2 µg/mL [2, 6]: 8.66%; activity at 2 µg/mL [2, 7]: -1.76%; percent parasite growth at 2 µg/mL ([3]; Toxoplasma gondii; library screen at 2 μg/mL, 72 h, % growth, replicate 1; read-out: Tg_72h_%Growth_Rep1): 92.3%; percent parasite growth at 2 µg/mL ([3]; Toxoplasma gondii; library screen at 2 μg/mL, 72 h, % growth, replicate 2; read-out: Tg_72h_%Growth_Rep2): 87.6%

Q: Which results are given for C=C(C)[C@@H]1CC[C@]2(C)CC[C@]3(C)[C@H](CC[C@@H]4[C@@]5(C)CC[C@H](O)C(C)(C)[C@@H]5CC[C@]43C)[C@@H]12 [BIA-L1759]?
A: Pf_72h_%Growth_Rep1 ([1]; P. falciparum 3D7, 72 h, library screen at 2 μg/mL, % growth, replicate 1): 81.82%; Pf_72h_%Growth_Rep2 ([1]; P. falciparum 3D7, 72 h, library screen at 2 μg/mL, % growth, replicate 2): 111.85%; Pf_120h_%Growth_Rep1 ([2]; P. falciparum 3D7, 120 h, library screen at 2 μg/mL, % growth, replicate 1): 99.08%; Pf_120h_%Growth_Rep2 ([2]; P. falciparum 3D7, 120 h, library screen at 2 μg/mL, % growth, replicate 2): 111.54%; Tg_72h_%Growth_Rep1 ([3]; T. gondii RH, 72 h, library screen at 2 μg/mL, % growth, replicate 1): 110.92%; Tg_72h_%Growth_Rep2 ([3]; T. gondii RH, 72 h, library screen at 2 μg/mL, % growth, replicate 2): 91.52%

Q: Which activity at 2 µg/mL ([1]; Plasmodium falciparum, 3D7, 72 h, P. falciparum, 72 h, parasite screen 2 μg/mL, % growth, replicate 1, read-out: Pf_72h_%Growth_Rep1) does the source give for CSC[S@+]([O-])C[C@H](CO)NC(=O)/C=C/c1c(C)[nH]c(=O)[nH]c1=O [Sparsomycin] here?
A: Its activity at 2 µg/mL is 4.3%.

Q: What about the activity at 2 µg/mL ([1]; Plasmodium falciparum, 3D7, 72 h, P. falciparum, 72 h, parasite screen 2 μg/mL, % growth, replicate 2, read-out: Pf_72h_%Growth_Rep2) of the same compound?
A: Its activity at 2 µg/mL is -1%.

Q: And the activity at 2 µg/mL ([2]; Plasmodium falciparum, 3D7, 120 h, P. falciparum, 120 h, parasite screen 2 μg/mL, % growth, replicate 1, read-out: Pf_120h_%Growth_Rep1)?
A: The activity at 2 µg/mL was 10.1%.

Q: What about the activity at 2 µg/mL ([2]; Plasmodium falciparum, 3D7, 120 h, P. falciparum, 120 h, parasite screen 2 μg/mL, % growth, replicate 2, read-out: Pf_120h_%Growth_Rep2) of the same compound?
A: Its activity at 2 µg/mL is -13.2%.

Q: What about the percent parasite growth at 2 µg/mL ([3]; Toxoplasma gondii, 72 h, T. gondii, 72 h, parasite screen 2 μg/mL, % growth, replicate 1; read-out: Tg_72h_%Growth_Rep1) of the same compound?
A: Its percent parasite growth at 2 µg/mL is 2.81%.

Q: And the percent parasite growth at 2 µg/mL ([3]; Toxoplasma gondii, 72 h, T. gondii, 72 h, parasite screen 2 μg/mL, % growth, replicate 2; read-out: Tg_72h_%Growth_Rep2)?
A: Its percent parasite growth at 2 µg/mL is 27.9%.

Q: Which results are given for CC[C@H]1NC(=O)[C@@H](NC(=O)c2ncccc2O)[C@@H](C)OC(=O)[C@H](c2ccccc2)NC(=O)[C@@H]2CC(=O)[C@H](CS[C@@H]3CN4CCC3CC4)CN2C(=O)[C@H](Cc2ccc(N(C)C)cc2)N(C)C(=O)[C@@H]2CCCN2C1=O.CS(=O)(=O)O [Quinupristin mesylate] ({Picolinoyl(3-OH)}-T[dAbu]P[NMePhe(4-NMe2)][X1][Phg]; ester 1-C)?
A: Pf_72h_%Growth_Rep1 [1, 8]: 73.76%; Pf_72h_%Growth_Rep2 [1, 9]: 97.23%; Pf_120h_%Growth_Rep1 [2, 10]: 64.23%; Pf_120h_%Growth_Rep2 [2, 11]: 110.37%; Tg_72h_%Growth_Rep1 [3, 12]: 87.31%; Tg_72h_%Growth_Rep2 [3, 13]: 81.75%

Q: Which results are given for O=C(/C=C/C=C/C=C/C1CCCCC1)NC1=C[C@@](O)(/C=C/C=C/C=C/C(=O)NC2=C(O)CCC2=O)[C@@H]2O[C@@H]2C1=O [Asukamycin]?
A: Pf_72h_%Growth_Rep1 [1, 14]: 79.58%; Pf_72h_%Growth_Rep2 [1, 15]: 78.85%; Pf_120h_%Growth_Rep1 [2, 16]: 67.03%; Pf_120h_%Growth_Rep2 [2, 17]: 82.56%; Tg_72h_%Growth_Rep1 [3, 14]: 161.41%; Tg_72h_%Growth_Rep2 [3, 15]: 93.58%
